Measurements from patent publication US5869492A, “Condensed thiazole derivatives, having 5-HT receptor affinity” (priority 1995, dated 1999).
Counter-ions that a name gives are not always drawn. Like-named read-outs stand apart in the source and are kept apart here.

Legend:
5-HT1A receptors = target: T1, 5-HT1A receptors (Rattus norvegicus, UniProt P19327); experiment: [3H]8-OH-DPAT binding to 5-HT1A receptors in rat hippocampal membranes; details: for Ki: [3H]8-OH-DPAT 2 nM, rat hippocampal membranes, mean of three determinations unless marked
T1 construct: Hippocampal tissue from the brains of male Sprague-Dawley rats; from tissue; host or cells: hippocampal membranes of male Sprague-Dawley rats (Charles River)
T1 sequence (P19327 1-422): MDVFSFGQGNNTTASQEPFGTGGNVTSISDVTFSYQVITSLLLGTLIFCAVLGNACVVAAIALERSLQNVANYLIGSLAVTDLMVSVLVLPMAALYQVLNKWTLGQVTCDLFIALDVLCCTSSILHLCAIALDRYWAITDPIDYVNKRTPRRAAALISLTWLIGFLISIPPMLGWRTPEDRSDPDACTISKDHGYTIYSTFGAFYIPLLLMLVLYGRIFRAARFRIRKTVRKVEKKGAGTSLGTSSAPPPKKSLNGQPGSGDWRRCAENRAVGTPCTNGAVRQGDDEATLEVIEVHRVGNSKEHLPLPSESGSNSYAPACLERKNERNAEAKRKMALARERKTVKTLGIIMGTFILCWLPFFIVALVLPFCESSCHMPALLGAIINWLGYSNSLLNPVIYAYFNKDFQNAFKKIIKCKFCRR
Protocol: Hippocampal tissue from the brains of male Sprague-Dawley rats (Charles River; weight range 150-250 g) was homogenised in ice-cold 50 mM Tris-HCl buffer (pH 7.7 when measured at 25° C., 1:40 w/v) and centrifuged at 30,000 g at 4° C. for 10 minutes. The pellet was rehomogenised in the same buffer, incubated at 37° C. for 10 minutes and centrifuged at 30,000 g at 4° C. for 10 minutes. The final pellet was resuspended in 50 mM Tris-HCI buffer (pH 7.7) containing 4 mM CaCl2, 0.1% L-ascorbic acid and 10 μM pargyline hydrochloride (equivalent to 6.25 mg wet weight of tissue/ml) and used immediately in the binding assay.
Aliquots (400 μl; equivalent to 2.5 mg wet weight of tissue/tube) of this membrane preparation were added to tubes containing [^3 H]8-hydroxy-2-(dipropylamino)tetralin ([^3 H]8-OH-DPAT; 50 μl; 2 nM) and distilled water (50 μl; total binding) or 5-HT (50 μl; 10 μM; non-specific binding) or test compound (50 μl; at a single concentration of 10^-6 M or at 10 concentrations ranging from 10^-11 -10^-3 M) and incubated at 25° C. for 30 minutes. The incubation was terminated by rapid filtration under vacuum through Skatron 11734 filters using a Skatron Cell Harvester. Filters were washed with ice-cold 50 mM Tris-HCl buffer, pH 7.7 (at 25° C., wash setting 9,9,0) and dried. The scored filter paper discs were punched out into vials, scintillation fluid added and radioactivity determined by liquid scintillation counting.
The percentage displacement of specific binding of the tritiated ligand was calculated for the single concentration (10^-6 M) of test compound. Displacement curves were then produced for those compounds which displaced ≥50% of specific binding of the tritiated ligand at 10^-6 M using a range of concentrations of the compound. The concentration which gave 50% inhibition of specific binding (IC50) was obtained from the curve. The inhibition coefficient Ki was then calculated using the formula [formula] in which [ligand] is the concentration of the tritiated ligand used and KD is the equilibrium dissociation constant for the ligand.

[1] = target: T2, 5-hydroxytryptamine (5-HT) reuptake sites (Rattus norvegicus, UniProt P31652); experiment: [3H]5-HT uptake into rat frontal cortical synaptosomes; type: biochemical
T2 construct: Frontal cortical tissue from the brains of male Sprague-Dawley rats; from tissue; host or cells: crude frontal cortical synaptosomes of male Sprague-Dawley rats (Charles River)
T2 sequence (P31652 whole entry): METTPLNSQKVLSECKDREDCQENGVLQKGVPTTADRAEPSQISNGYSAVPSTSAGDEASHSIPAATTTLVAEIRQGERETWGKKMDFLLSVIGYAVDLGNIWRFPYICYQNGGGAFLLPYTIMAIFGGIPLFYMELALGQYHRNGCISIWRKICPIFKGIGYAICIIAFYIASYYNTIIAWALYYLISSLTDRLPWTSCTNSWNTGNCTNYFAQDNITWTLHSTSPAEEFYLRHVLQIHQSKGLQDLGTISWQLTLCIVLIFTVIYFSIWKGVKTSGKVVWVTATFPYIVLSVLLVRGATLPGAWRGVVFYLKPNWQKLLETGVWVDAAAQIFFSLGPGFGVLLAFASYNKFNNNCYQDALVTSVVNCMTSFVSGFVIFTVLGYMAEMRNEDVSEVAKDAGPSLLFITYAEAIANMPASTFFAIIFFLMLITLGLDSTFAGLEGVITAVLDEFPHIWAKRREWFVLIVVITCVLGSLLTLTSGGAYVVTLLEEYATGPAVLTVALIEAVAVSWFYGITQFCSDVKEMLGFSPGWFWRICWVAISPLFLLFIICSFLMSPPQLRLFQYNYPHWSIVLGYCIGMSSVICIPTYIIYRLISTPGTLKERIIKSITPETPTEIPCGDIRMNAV
Protocol: Frontal cortical tissue from the brains of male Sprague-Dawley rats (Charles River; weight range 150-250 g) was homogenised in ice-cold 0.32M sucrose (1:10 w/v) using a motor driven teflon pestle (difference in diameter between mortar and pestle 0.5 mm). Nuclei and cell debris were removed by centrifugation at 1,500 g at 4° C. for 10 minutes. The pellet (P1) was discarded and the supernatant centrifuged at 30,000 g at 4° C. for 10 minutes. The crude synaptosomal pellet (P2) was resuspended in Krebs-Henseleit buffer (equivalent to 8.3 mg wet weight of tissue/ml).
Crude synaptosomes were incubated in a shaking water bath at 37° C. for 15 minutes. Aliquots (150 μl; equivalent to 1.25 mg wet weight of tissue/tube) were then added to tubes containing 275 μl of Krebs-Henseleit buffer and 50 μl of Krebs-Henseleit buffer (total uptake) or 50 μl of test compound (at a single concentration of 10^-6 M or at 10 concentrations ranging from 10^-11 -10^-3 M) or 50 μl of zimeldine (10^-5 M; non-specific uptake). Uptake was initiated by the addition of 25 μl of freshly prepared [^3 H]5-HT (2 nM), followed by vortexing, and was continued for 5 minutes at 37° C. in the shaking water bath. Uptake was terminated by filtration under vacuum through Skatron 11734 filters using a Skatron cell harvester. Filters were then washed with 8 ml ice-cold saline. The scored filter paper discs were punched into vials, scintillation fluid added and radioactivity determined by liquid scintillation counting.
For both the 5-HT uptake and noradrenaline uptake tests, the percentage inhibition of specific uptake of the tritiated ligand was calculated for the single concentration (10^-6 M) of test compound. Inhibition curves were then produced for those compounds which inhibited ≥50% of specific uptake of the tritiated ligand at 10 ^-6 M using a range of concentrations of test compound. The concentration which gave 50% inhibition of specific uptake (IC50) was obtained from the curve. The inhibition constant (Ki) was then calculated using the formula [formula] in which [ligand] is the concentration of tritiated ligand used and Km is the affinity of the uptake site for the ligand.

[2] = target: T3, noradrenaline reuptake sites (Rattus norvegicus, UniProt Q63380); experiment: [3H]noradrenaline uptake into rat frontal cortical synaptosomes; type: biochemical; details: [3H]noradrenaline 10 nM, mean of three determinations unless marked (** one), read-out: NA uptake Ki
T3 construct: Frontal cortical tissue from the brains of male Sprague-Dawley rats; from tissue; host or cells: crude frontal cortical synaptosomes of male Sprague-Dawley rats (Charles River)
T3 sequence (Q63380 1-617): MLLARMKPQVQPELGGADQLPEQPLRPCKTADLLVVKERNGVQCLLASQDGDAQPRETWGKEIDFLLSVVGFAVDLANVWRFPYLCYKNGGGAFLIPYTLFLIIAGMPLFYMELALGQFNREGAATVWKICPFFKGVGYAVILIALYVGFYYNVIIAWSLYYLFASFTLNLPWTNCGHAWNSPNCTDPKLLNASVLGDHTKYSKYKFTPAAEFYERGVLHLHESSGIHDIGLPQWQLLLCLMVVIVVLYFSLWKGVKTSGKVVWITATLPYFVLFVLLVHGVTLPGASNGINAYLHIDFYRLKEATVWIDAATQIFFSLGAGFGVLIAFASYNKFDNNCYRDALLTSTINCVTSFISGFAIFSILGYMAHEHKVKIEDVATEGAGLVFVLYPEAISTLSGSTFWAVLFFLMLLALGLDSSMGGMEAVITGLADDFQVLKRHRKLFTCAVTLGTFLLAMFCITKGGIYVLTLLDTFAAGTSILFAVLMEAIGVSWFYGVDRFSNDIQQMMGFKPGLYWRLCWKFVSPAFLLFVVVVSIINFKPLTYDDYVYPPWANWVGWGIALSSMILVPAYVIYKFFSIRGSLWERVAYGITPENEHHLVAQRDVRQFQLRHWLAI
Protocol: Frontal cortical tissue from the brains of male Sprague-Dawley rats (Charles River; weight range 150-250 g) was homogenised in ice-cold 0.32M sucrose (1:10 w/v) using a motor driven teflon pestle (difference in diameter between mortar and pestle 0.5 mm). Nuclei and cell debris were removed by centrifugation at 1,500 g at 4° C. for 10 minutes. The pellet (P1) was discarded and the supernatant centrifuged at 30,000 g at 4° C. for 10 minutes. The crude synaptosomal pellet (P2) was resuspended in Krebs-Physiological buffer (equivalent to 16.7 mg wet weight of tissue/ml).
Crude synaptosomes were incubated in a shaking water bath at 37° C. for 15 minutes. Aliquots (150 μl; equivalent to 2.5 mg wet weight of tissue/tube) were then added to tubes containing 275 μl of Krebs-Physiological buffer and 50 μl of Krebs-Physiological buffer (total uptake) or 50 μl of test compound (at a single concentration of 10^-6 M or 10 concentrations ranging from 10^-11 -10^-3 M) or 50 μl of desipramine (10^-5 M; non-specific uptake). Uptake was initiated by the addition of 25 μl of freshly prepared [^3 H]noradrenaline (10 nM), followed by vortexing and was continued for 5 minutes at 37° C. in the shaking water bath. Uptake was terminated by filtration under vacuum through Whatman GF/B filters using a Brandell cell harvester. Filters were then washed with 8 ml ice-cold saline. The scored filter paper discs were placed into vials, scintillation fluid added and radioactivity determined by liquid scintillation counting.

[3] = [3H]5-HT 2 nM, rat frontal cortical synaptosomes, mean of three determinations unless marked (* two), read-out: 5-HT uptake Ki

C1=C(c2csc3ccccc23)N2CCN=C2S1 [Example 1, 3-(benzo[b]thiophen-3-yl)-5,6-dihydroimidazo[2,1-b]thiazole monohydrobromide dihydrate]
Ki (5-HT1A receptors): 0.081 µM | Ki [1]: 0.0127 µM | Ki [2]: 0.0028 µM

C1=C(c2csc3ccccc23)N2CCCN=C2S1 [Example 2, 3-(benzo[b]thiophen-3-yl)-6,7-dihydro-5H-thiazolo[3,2-2a]pyrimidine]
Ki (5-HT1A receptors): 0.34 µM | Ki [1, 3]: 0.305 µM | Ki [2]: 0.04 µM

C1=C(c2coc3ccccc23)N2CCN=C2S1 [Example 3, 3-(benzo[b]furan-3-yl)-5,6-dihydroimidazo[2,1-b]thiazole monohydrobromide monohydrate]
Ki (5-HT1A receptors): 0.118 µM | Ki [1]: 0.084 µM | Ki [2]: 0.041 µM

C1=C(c2coc3ccccc23)N2CCCN=C2S1 [Example 4, 3-(benzo[b]furan-3-yl)-6,7-dihydro-5H-thiazolo[3,2-a]pyrimidine]
Ki (5-HT1A receptors): 0.321 µM | Ki [1, 3]: 0.881 µM | Ki [2]: 0.116 µM

Clc1ccc2scc(C3=CSC4=NCCN34)c2c1 [Example 5, 3-(5-chlorobenzo[b]thiophen-3-yl)-5,6-dihydroimidazo[2,1-b]thiazole monohydrobromide]
Ki (5-HT1A receptors): 0.0407 µM | Ki [1]: 0.0087 µM | Ki [2]: 0.013 µM

COc1ccc2scc(C3=CSC4=NCCN34)c2c1 [Example 6, 3-(5-methoxybenzo[b]thiophen-3-yl)-5,6-dihydroimidazo[2,1-b]thiazole monohydrobromide]
Ki (5-HT1A receptors): 0.0375 µM | Ki [1]: 0.022 µM | Ki [2]: 0.051 µM

Fc1ccc2scc(C3=CSC4=NCCN34)c2c1 [Example 7, 3-(5-fluorobenzo[b]thiophen-3-yl)-5,6-dihydroimidazo[2,1-b]thiazole monohydrobromide]
inhibition at 1 µM (5-HT1A receptors; single concentration 10^-6 M, [3H]8-OH-DPAT, * mean of two determinations, read-out: 5-HT1A % displacement at 10^-6 M): 66% | Ki [1]: 0.036 µM | Ki [2]: 0.0054 µM

N#Cc1ccc2scc(C3=CSC4=NCCN34)c2c1 [Example 8, 3-(5,6-dihydroimidazo[2,1-b]thiazol-3-yl)benzo[b]thiophen-5-carbonitrile monohydrobromide]
Ki (5-HT1A receptors): 0.467 µM | Ki [1]: 0.53 µM
